Experimental findings from ChEMBL document CHEMBL2176888, “Structure-activity relationships in human Toll-like receptor 8-active 2,3-diamino-furo[2,3-c]pyridines” (J Med Chem, 2012) are described below.

As usually defined, the EC50 is the concentration needed to bring the measured effect to its halfway point.

Common to all, as to type: functional, cell-based
For one test, the target named is T1, Toll-like receptor 8 (Homo sapiens, UniProt Q9NR97).
T1 sequence (Q9NR97 whole entry): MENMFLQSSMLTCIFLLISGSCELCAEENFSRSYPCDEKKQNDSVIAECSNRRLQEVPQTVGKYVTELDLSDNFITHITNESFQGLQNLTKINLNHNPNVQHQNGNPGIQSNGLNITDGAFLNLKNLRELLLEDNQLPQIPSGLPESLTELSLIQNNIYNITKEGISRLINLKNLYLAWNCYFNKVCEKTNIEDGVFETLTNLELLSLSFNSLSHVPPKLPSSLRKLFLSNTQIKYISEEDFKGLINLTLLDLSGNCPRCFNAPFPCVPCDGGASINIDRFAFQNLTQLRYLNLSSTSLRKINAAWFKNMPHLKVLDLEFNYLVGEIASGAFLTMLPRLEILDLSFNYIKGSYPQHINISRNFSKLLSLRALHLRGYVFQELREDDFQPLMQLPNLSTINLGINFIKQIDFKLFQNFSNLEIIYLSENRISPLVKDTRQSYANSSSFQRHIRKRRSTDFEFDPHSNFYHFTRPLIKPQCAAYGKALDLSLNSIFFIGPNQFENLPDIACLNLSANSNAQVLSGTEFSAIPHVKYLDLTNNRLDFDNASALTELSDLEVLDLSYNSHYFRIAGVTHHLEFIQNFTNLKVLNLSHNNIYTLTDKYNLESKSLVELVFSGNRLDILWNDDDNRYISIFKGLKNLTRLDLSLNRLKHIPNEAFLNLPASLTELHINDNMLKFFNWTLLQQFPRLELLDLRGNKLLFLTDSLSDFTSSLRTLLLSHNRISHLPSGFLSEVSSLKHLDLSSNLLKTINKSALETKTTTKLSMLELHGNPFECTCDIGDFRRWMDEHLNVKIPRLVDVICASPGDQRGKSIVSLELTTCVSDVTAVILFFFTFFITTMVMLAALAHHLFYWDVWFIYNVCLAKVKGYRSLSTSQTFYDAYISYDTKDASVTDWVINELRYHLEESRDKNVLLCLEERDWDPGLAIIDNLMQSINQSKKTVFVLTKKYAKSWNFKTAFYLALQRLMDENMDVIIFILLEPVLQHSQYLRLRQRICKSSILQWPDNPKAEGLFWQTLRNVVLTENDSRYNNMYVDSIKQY
Kind of test: Agonist activity at human TLR8 expressed in HEK293 cells assessed as induction of NF-kappaB activity by measuring extracellular secreted alkaline phosphatase by HEK-blue reporter gene assay. In general terms: Reporter assays use an easily measured gene product as a stand-in for the process of interest.

In test [1] the target is Toll-like receptor 5 (Homo sapiens) (UniProt O60602). In words: Agonist activity at human TLR5 expressed in HEK293 cells assessed as induction of NF-kappaB activity by measuring extracellular secreted alkaline phosphatase up to 250 uM by HEK-blue reporter gene assay.
Test [2] addresses T2, Toll-like receptor 8 (Homo sapiens) (UniProt Q9NR97).
T2 sequence (whole entry): T1 sequence (Q9NR97 whole entry)
Kind of test: Agonist activity at human TLR8 expressed in HEK293 cells assessed as induction of NF-kappaB activity by measuring extracellular secreted alkaline phosphatase up to 250 uM by HEK-blue reporter gene assay.

For test [3], the target named is T3, Toll-like receptor 9 (Homo sapiens) (UniProt Q9NR96).
T3 sequence (whole entry): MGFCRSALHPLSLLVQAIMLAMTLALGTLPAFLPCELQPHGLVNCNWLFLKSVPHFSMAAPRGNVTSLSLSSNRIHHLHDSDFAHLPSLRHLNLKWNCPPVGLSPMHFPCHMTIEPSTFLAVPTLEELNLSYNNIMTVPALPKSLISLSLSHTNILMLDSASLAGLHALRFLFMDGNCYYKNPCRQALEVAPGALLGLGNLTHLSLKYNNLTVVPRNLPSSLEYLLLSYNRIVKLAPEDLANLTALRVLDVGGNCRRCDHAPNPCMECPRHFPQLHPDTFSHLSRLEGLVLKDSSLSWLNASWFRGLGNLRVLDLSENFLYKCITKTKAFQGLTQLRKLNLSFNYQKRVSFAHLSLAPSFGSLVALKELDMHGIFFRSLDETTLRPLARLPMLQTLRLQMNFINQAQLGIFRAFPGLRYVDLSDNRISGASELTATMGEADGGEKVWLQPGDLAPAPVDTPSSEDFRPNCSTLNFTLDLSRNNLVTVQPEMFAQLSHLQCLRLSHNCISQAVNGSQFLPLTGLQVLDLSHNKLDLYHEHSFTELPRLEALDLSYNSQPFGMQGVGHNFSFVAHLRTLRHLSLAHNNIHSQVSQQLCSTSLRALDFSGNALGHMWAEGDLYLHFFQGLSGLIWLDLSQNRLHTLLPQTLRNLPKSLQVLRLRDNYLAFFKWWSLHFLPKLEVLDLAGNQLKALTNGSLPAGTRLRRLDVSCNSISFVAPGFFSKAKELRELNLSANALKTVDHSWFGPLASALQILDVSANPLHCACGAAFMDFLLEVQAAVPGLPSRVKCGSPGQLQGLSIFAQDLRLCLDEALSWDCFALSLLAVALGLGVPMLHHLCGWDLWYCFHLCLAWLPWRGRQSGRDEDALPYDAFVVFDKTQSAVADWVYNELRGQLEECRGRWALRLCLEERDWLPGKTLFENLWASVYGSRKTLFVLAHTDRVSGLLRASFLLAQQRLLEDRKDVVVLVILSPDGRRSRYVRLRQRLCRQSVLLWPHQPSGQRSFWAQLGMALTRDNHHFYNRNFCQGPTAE
Kind of test: Agonist activity at human TLR9 expressed in HEK293 cells assessed as induction of NF-kappaB activity by measuring extracellular secreted alkaline phosphatase up to 250 uM by HEK-blue reporter gene assay.

In test [4] the target is Toll-like receptor 4 (Homo sapiens) (UniProt O00206). In words: Agonist activity at human TLR4 expressed in HEK293 cells assessed as induction of NF-kappaB activity by measuring extracellular secreted alkaline phosphatase up to 250 uM by HEK-blue reporter gene assay.
In test [5] the target is T4, Toll-like receptor 7 (Homo sapiens) (UniProt Q9NYK1).
T4 sequence (whole entry): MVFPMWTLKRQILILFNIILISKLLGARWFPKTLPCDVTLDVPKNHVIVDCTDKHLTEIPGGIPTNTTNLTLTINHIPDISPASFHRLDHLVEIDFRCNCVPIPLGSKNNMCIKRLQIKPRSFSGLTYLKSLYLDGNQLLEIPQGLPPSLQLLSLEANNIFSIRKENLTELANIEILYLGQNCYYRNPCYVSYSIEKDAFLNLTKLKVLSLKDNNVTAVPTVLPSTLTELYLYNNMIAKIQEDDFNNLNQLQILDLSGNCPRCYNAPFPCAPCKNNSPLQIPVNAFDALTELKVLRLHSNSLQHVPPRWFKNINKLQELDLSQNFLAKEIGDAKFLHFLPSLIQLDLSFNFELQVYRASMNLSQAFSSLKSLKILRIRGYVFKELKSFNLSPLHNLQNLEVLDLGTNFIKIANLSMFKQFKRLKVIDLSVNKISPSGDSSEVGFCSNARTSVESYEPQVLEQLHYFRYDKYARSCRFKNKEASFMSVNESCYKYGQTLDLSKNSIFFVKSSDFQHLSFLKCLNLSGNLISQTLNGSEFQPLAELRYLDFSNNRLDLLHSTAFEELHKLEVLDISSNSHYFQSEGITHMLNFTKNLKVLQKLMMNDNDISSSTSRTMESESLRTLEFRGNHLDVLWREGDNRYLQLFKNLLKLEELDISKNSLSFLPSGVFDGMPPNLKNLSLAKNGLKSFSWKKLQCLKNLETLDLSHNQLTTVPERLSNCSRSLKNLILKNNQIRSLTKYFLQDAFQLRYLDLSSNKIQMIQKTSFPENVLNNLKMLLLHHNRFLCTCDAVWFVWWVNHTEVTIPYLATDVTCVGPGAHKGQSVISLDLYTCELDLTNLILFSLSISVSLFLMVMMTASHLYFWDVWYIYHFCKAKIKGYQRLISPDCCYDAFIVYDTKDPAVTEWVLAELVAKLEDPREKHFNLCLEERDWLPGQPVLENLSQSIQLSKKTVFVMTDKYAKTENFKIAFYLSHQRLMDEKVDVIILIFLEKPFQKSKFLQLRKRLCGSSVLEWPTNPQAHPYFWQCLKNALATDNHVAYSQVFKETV
Kind of test: Agonist activity at human TLR7 expressed in HEK293 cells assessed as induction of NF-kappaB activity by measuring extracellular secreted alkaline phosphatase up to 250 uM by HEK-blue reporter gene assay.

For test [6], the target named is Toll-like receptor 3 (Homo sapiens) (UniProt O15455). Kind of test: Agonist activity at human TLR3 expressed in HEK293 cells assessed as induction of NF-kappaB activity by measuring extracellular secreted alkaline phosphatase up to 250 uM by HEK-blue reporter gene assay.

Active and inactive are the calls of the source. The rule behind the calls is not given here.

Toll-like receptor 5 (Homo sapiens), sequence (O60602 whole entry): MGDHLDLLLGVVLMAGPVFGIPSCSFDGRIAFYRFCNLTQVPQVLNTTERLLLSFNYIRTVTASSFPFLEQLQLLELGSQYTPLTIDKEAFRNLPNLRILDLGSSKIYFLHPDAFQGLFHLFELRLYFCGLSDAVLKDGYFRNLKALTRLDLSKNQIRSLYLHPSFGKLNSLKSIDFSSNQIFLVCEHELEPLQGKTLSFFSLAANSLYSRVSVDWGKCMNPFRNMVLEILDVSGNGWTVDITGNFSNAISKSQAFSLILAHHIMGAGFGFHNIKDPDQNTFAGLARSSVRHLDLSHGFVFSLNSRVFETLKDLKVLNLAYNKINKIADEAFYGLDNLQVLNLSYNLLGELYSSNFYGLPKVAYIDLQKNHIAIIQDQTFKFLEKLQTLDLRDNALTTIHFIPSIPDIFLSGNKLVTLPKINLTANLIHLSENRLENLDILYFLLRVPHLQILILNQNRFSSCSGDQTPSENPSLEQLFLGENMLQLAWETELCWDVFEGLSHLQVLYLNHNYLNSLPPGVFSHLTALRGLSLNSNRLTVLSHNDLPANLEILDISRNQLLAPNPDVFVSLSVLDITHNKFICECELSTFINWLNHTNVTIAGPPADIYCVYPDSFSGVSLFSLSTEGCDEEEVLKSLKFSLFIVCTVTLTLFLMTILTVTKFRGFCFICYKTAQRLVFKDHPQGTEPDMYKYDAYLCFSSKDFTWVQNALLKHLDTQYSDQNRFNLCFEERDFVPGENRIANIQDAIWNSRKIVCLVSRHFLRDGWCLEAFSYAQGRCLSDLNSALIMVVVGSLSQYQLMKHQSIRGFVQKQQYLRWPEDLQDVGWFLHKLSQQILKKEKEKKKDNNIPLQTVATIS
Toll-like receptor 3 (Homo sapiens), sequence (O15455 whole entry): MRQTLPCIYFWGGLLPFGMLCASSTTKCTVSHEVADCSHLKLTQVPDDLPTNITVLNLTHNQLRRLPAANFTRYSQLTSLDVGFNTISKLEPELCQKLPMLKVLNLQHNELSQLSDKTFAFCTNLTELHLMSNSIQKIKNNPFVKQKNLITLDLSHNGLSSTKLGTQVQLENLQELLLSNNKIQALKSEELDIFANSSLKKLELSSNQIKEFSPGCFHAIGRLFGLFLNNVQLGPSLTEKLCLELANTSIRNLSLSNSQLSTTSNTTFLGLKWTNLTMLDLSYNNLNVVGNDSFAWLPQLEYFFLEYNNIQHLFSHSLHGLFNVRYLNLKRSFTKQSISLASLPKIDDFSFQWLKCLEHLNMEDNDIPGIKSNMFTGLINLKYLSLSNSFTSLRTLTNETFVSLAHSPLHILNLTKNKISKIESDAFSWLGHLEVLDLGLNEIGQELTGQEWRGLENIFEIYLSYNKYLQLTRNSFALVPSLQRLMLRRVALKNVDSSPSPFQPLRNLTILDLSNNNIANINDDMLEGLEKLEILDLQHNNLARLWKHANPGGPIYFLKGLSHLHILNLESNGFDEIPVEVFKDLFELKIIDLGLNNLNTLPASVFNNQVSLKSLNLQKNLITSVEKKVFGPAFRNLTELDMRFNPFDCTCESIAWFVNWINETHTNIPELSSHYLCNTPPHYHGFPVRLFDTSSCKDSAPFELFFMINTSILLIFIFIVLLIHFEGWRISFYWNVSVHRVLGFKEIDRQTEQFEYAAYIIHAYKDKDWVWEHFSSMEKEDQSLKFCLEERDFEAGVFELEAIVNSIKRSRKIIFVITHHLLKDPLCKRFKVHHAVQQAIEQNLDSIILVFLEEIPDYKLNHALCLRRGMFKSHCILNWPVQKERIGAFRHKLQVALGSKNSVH
Toll-like receptor 4 (Homo sapiens), sequence (O00206 whole entry): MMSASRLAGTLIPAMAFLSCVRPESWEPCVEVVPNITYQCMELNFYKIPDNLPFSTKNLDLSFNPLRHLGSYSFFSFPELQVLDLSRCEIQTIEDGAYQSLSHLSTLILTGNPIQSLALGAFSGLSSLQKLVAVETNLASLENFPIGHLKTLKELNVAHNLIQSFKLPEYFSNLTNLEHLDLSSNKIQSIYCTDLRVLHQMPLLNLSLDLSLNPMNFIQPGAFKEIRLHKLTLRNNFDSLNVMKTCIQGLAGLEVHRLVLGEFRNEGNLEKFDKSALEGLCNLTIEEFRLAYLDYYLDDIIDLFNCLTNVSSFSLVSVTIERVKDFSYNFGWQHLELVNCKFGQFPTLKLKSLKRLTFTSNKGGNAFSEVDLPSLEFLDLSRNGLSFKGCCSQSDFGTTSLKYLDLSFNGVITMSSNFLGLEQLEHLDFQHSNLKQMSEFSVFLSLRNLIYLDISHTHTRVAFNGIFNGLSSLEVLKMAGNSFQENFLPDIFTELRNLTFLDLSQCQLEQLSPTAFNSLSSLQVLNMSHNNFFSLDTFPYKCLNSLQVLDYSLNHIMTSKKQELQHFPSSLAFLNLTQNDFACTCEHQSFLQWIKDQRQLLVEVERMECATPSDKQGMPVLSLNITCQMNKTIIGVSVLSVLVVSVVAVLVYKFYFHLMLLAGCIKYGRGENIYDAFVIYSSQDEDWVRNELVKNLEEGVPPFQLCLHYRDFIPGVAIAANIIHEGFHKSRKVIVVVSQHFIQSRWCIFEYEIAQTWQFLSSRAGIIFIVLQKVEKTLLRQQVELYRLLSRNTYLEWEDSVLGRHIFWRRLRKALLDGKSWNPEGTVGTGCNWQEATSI

As for `Cc1ncc(CO)c2c(Nc3ccccc3)c(NCc3ccccc3)oc12`, the half-maximal effective concentration (EC50) at Toll-like receptor 8 (read-out: EC50) was 1.68 µM.

Take `CCCCc1nc2c(N)nccn2c1Nc1ccc(OC)cc1`: the outcome in test [1], in test [2], in test [3], in test [4], in test [5] and in test [6] was inactive.

On to `Cc1ncc(CO)c2c(Nc3ccccn3)c(N[C@@H](C)c3ccccc3)oc12`, for which the EC50 at Toll-like receptor 8 (read-out: EC50) was determined as 4.27 µM.

In the case of `Cc1ncc(CO)c2c(Nc3ccccn3)c(NC(C)C)oc12`, the EC50 result on Toll-like receptor 8 (hek293) was “Not Active”.

Regarding `Cc1ncc(CO)c2c(Nc3ccccn3)c(NC3CCCCC3)oc12`, at Toll-like receptor 8 (read-out: EC50), the concentration giving a half-maximal response (EC50) was 6.93 µM.

For the compound `c1ccc(CNc2c(-c3ccccc3)nc3cnccn23)cc1`, the outcome in test [1], in test [2], in test [3], in test [4], in test [5] and in test [6] was inactive.

As for `CCCCc1nc2c(N)nccn2c1NCc1ccccc1`, the outcome in test [1], in test [2], in test [3], in test [4], in test [5] and in test [6] was inactive.

Turning to `c1cc(-c2nc3cnccn3c2NC2CCCCC2)ccn1`, the result in test [1], in test [2], in test [3], in test [4], in test [5] and in test [6] was inactive.

For `Cc1ncc(CO)c2c(Nc3ccccn3)c(NC(C)(C)C)oc12`, the EC50 entry at Toll-like receptor 8 (hek293) is reported as “Not Active”.

On to `CC(C)(C)Nc1c(-c2ccccc2)nc2cnccn12`, for which the result in test [1], in test [2], in test [3], in test [4], in test [5] and in test [6] was inactive.

`c1ccc(CNc2c(-c3ccncc3)nc3cnccn23)cc1`: the result in test [1], in test [2], in test [3], in test [4], in test [5] and in test [6] was inactive.

Regarding `CCCCCNc1oc2c(C)ncc(CO)c2c1Nc1cccc(F)c1`, the half-maximal effective concentration (EC50) on Toll-like receptor 8 (read-out: EC50) worked out at 0.37 µM.

As to `Cc1cccc(Cl)c1Nc1oc2c(C)ncc(CO)c2c1Nc1ccccn1`, the EC50 entry on Toll-like receptor 8 (hek293) was “Not Active”.

As for `Cc1ncc(CO)c(-c2nc3ccccn3c2NC2CCCCC2)c1OCc1ccccc1`, on Toll-like receptor 8 (hek293), the 50% effective concentration (EC50) result is on record as “Not Active”.

With `Cc1ncc(CO)c2c(Nc3ccccn3)c(N)oc12`, the EC50 entry on Toll-like receptor 8 (hek293) is given as “Not Active”.

In the case of `Cc1ncc(CO)c2c(Nc3ccccn3)c(NCCC(=O)OC(C)(C)C)oc12`, at Toll-like receptor 8 (read-out: EC50), the EC50 was 7.64 µM.

As for `CCCCCNc1oc2c(C)ncc(CO)c2c1Nc1cccc([N+](=O)[O-])c1`, the concentration giving a half-maximal response (EC50) at Toll-like receptor 8 (read-out: EC50) amounted to 0.85 µM.

As for `Cc1ncc(CO)c2c(Nc3ccccn3)c(NCCN3CCOCC3)oc12`, on Toll-like receptor 8 (hek293), the EC50 result was “Not Active”.

`CCOP(=O)(CNc1oc2c(C)ncc(CO)c2c1Nc1ccccn1)OCC`: the EC50 result at Toll-like receptor 8 (hek293) is “Not Active”.

Turning to `Cc1ncc(CO)c2c(Nc3cnccn3)c(NC3CCCCC3)oc12`, the EC50 on Toll-like receptor 8 (read-out: EC50) was 10.6 µM.

For `Cc1ncc(CO)c2c(Nc3ccccn3)c(NC(C)(C)CC(C)(C)C)oc12`, the EC50 result at Toll-like receptor 8 (hek293) is reported as “Not Active”.

As to `CCCCCNc1oc2c(C)ncc(CO)c2c1Nc1ccccc1`, the EC50 at Toll-like receptor 8 (read-out: EC50) was determined as 2.25 µM.

Turning to `Cc1ncc(CO)c2c(Nc3cnccn3)c(NC(C)(C)C)oc12`, at Toll-like receptor 8 (hek293), the EC50 result is recorded as “Not Active”.

As for `CCOC(=O)CNc1oc2c(C)ncc(CO)c2c1Nc1ccccn1`, the EC50 entry at Toll-like receptor 8 (hek293) is listed as “Not Active”.

Take `COc1ccc(Nc2oc3c(C)ncc(CO)c3c2Nc2ccccn2)cc1`: the EC50 entry at Toll-like receptor 8 (hek293) was “Not Active”.

Regarding `Cc1ncc(CO)c2c(Nc3ccccn3)c(NCCCCCCNc3oc4c(C)ncc(CO)c4c3Nc3ccccn3)oc12`, the EC50 at Toll-like receptor 8 (read-out: EC50) stood at 3.37 µM.

Consider `CCCC(C)Nc1oc2c(C)ncc(CO)c2c1Nc1ccccn1` (stereo not drawn), for which, at Toll-like receptor 8 (read-out: EC50), the concentration for a half-maximal effect (EC50) turned out to be 9.01 µM.

With `Cc1ncc(CO)c2c(Nc3cnccn3)c(NCc3ccccc3)oc12`, the EC50 on Toll-like receptor 8 (read-out: EC50) was found to be 9.79 µM.
